From US10702592B2, “Peptides and combination of peptides for use in immunotherapy against NHL and other cancers” (Immatics Biotechnologies GmbH, priority 2016, dated 2020)

Experiments:
[1] = tested on: CD8+ T cells; experiment: In vitro T-cell priming immunogenicity assay (aAPC with pMHC and anti-CD28, multimer staining); assay type: cell-based, human; settings: HLA-A*02 restricted peptides; percentage of positive wells and donors (among evaluable)
Source text: In order to obtain information regarding the immunogenicity of the TUMAPs of the present invention, the inventors performed investigations using an in vitro T-cell priming assay based on repeated stimulations of CD8+ T cells with artificial antigen presenting cells (aAPCs) loaded with peptide/MHC complexes and anti-CD28 antibody.
In order to perform in vitro stimulations by artificial antigen presenting cells loaded with peptide-MHC complex (pMHC) and anti-CD28 antibody, the inventors first isolated CD8+ T cells from fresh HLA-A*02 leukapheresis products via positive selection using CD8 microbeads (Miltenyi Biotec, Bergisch-Gladbach, Germany) of healthy donors obtained from the University clinics Mannheim, Germany, after informed consent.
PBMCs and isolated CD8+ lymphocytes were incubated in T-cell medium (TCM) until use consisting of RPMI-Glutamax (Invitrogen, Karlsruhe, Germany) supplemented with 10% heat inactivated human AB serum (PAN-Biotech, Aidenbach, Germany), 100 U/ml Penicillin/100 μg/ml Streptomycin (Cambrex, Cologne, Germany), 1 mM sodium pyruvate (CC Pro, Oberdorla, Germany), 20 μg/ml Gentamycin (Cambrex). 2.5 ng/ml IL-7 (PromoCell, Heidelberg, Germany) and 10 U/ml IL-2 (Novartis Pharma, Nurnberg, Germany) were also added to the TCM at this step.
Generation of pMHC/anti-CD28 coated beads, T-cell stimulations and readout was performed in a highly defined in vitro system using four different pMHC molecules per stimulation condition and 8 different pMHC molecules per readout condition.
The purified co-stimulatory mouse IgG2a anti human CD28 Ab 9.3 (Jung et al., 1987) was chemically biotinylated using Sulfo-N-hydroxysuccinimidobiotin as recommended by the manufacturer (Perbio, Bonn, Germany). Beads used were 5.6 μm diameter streptavidin coated polystyrene particles (Bangs Laboratories, Illinois, USA).
800.000 beads/200 μl were coated in 96-well plates in the presence of 4×12.5 ng different biotin-pMHC, washed and 600 ng biotin anti-CD28 were added subsequently in a volume of 200 μl. Stimulations were initiated in 96-well plates by co-incubating 1×10^6 CD8+ T cells with 2×10^5 washed coated beads in 200 μl TCM supplemented with 5 ng/ml IL-12 (PromoCell) for 3 days at 37° C. Half of the medium was then exchanged by fresh TCM supplemented with 80 U/ml IL-2 and incubating was continued for 4 days at 37° C. This stimulation cycle was performed for a total of three times. For the pMHC multimer readout using 8 different pMHC molecules per condition, a two-dimensional combinatorial coding approach was used as previously described (Andersen et al., 2012) with minor modifications encompassing coupling to 5 different fluorochromes. Finally, multimeric analyses were performed by staining the cells with Live/dead near IR dye (Invitrogen, Karlsruhe, Germany), CD8-FITC antibody clone SK1 (BD, Heidelberg, Germany) and fluorescent pMHC multimers. For analysis, a BD LSRII SORP cytometer equipped with appropriate lasers and filters was used. Peptide specific cells were calculated as percentage of total CD8+ cells. Evaluation of multimeric analysis was done using the FlowJo software (Tree Star, Oregon, USA). In vitro priming of specific multimer+CD8+ lymphocytes was detected by comparing to negative control stimulations.

[2] = biological target: HLA-A*02:01 (Homo sapiens, UniProt P04439, D140Y/D185E/D98H/E176V/E277Q/G131W/G231S/I119V/I121R/I166T/I218V/L300P/L318F/N151K/N90K/P208A/P217A/Q86G/Q94H/R138H/R169H/T345S); experiment: MHC binding assay (UV-ligand exchange, beta2m ELISA); settings: binding to HLA-A*02:01, UV-ligand exchange
Summary of the method: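 Exchange yield, UV-ligand exchange: 100-fold diluted samples on streptavidin plates, 1 h at 37 °C; HRP anti-β2m 1 h at 37 °C; TMB read at 450 nm.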

Peptide exchange (MHC class I binding score, peptide exchange yield) [2] | Substance | Wells positive [%] [1]
“++++” (≥75% = ++++) | 7 (NLLGMIFSM; listed as Homo sapiens) [compound 7] | “++++” (≥70% = ++++)
“+++” (≥50 = +++) | 8 (ALYAVIEKA; listed as Homo sapiens) [compound 8] | “+” (<20% = +)
“+++” (≥50 = +++) | 9 (FLLDLDPLL; listed as Homo sapiens) [compound 9] | “++” (20% - 49% = ++)
“+++” (≥50 = +++) | 12 (GLLLLVPLL; listed as Homo sapiens) [compound 12] | “+++” (50% - 69% = +++)
“+++” (≥50 = +++) | 13 (HLVPASWKL; listed as Homo sapiens) [compound 13] | “+++” (50% - 69% = +++)
“+++” (≥50 = +++) | 17 (VIIPLLSSV; listed as Homo sapiens) [compound 17] | “++” (20% - 49% = ++)
“++++” (≥75% = ++++) | 19 (VLEAILPLV; listed as Homo sapiens) [compound 19] | “+” (<20% = +)
“+++” (≥50 = +++) | 21 (ALFKEAYSL; listed as Homo sapiens) [compound 21] | “+” (<20% = +)
“+++” (≥50 = +++) | 22 (ALKKHLTSV; listed as Homo sapiens) [compound 22] | “++++” (≥70% = ++++)
“+++” (≥50 = +++) | 24 (AVLGFSFRL; listed as Homo sapiens) [compound 24] | “++++” (≥70% = ++++)
“+++” (≥50 = +++) | 25 (FLDTSNQHLL; listed as Homo sapiens) [compound 25] | “+” (<20% = +)
“+++” (≥50 = +++) | 26 (FLGSFIDHV; listed as Homo sapiens) [compound 26] | “+” (<20% = +)
“+++” (≥50 = +++) | 27 (FLNQESFDL; listed as Homo sapiens) [compound 27] | “+” (<20% = +)
“+++” (≥50 = +++) | 28 (FLSNANPSL; listed as Homo sapiens) [compound 28] | “++++” (≥70% = ++++)
“+++” (≥50 = +++) | 29 (ILSDVTQGL; listed as Homo sapiens) [compound 29] | “+” (<20% = +)
“+++” (≥50 = +++) | 30 (ILSTLDVEL; listed as Homo sapiens) [compound 30] | “++” (20% - 49% = ++)
“++++” (≥75% = ++++) | 33 (LLANIVPIAMLV; listed as Homo sapiens) [compound 33] | “+” (<20% = +)
“+++” (≥50 = +++) | 35 (SLSSERYYL; listed as Homo sapiens) [compound 35] | “++++” (≥70% = ++++)
“+++” (≥50 = +++) | 36 (VILDIPLLFET; listed as Homo sapiens) [compound 36] | “++” (20% - 49% = ++)
“+++” (≥50 = +++) | 37 (VLGNALEGV; listed as Homo sapiens) [compound 37] | “+” (<20% = +)

Peptide exchange (MHC class I binding score, peptide exchange yield) [2] | Substance | Wells positive [%] [1]
“++++” (≥75% = ++++) | 40 (FLNSVIVDL; listed as Homo sapiens) [compound 40] | “+++” (50% - 69% = +++)
“++++” (≥75% = ++++) | 41 (ILASIFETV; listed as Homo sapiens) [compound 41] | “+++” (50% - 69% = +++)
“++++” (≥75% = ++++) | 42 (YLQDLVERA; listed as Homo sapiens) [compound 42] | “+++” (50% - 69% = +++)
“+++” (≥50 = +++) | 43 (ALLEGVKNV; listed as Homo sapiens) [compound 43] | “++” (20% - 49% = ++)
“+++” (≥50 = +++) | 44 (FIIEEQSFL; listed as Homo sapiens) [compound 44] | “+” (<20% = +)
“+++” (≥50 = +++) | 46 (FLVEEIFQT; listed as Homo sapiens) [compound 46] | “+” (<20% = +)
“+++” (≥50 = +++) | 47 (GLLPKLTAL; listed as Homo sapiens) [compound 47] | “++” (20% - 49% = ++)
“++++” (≥75% = ++++) | 51 (SLLGNSPVL; listed as Homo sapiens) [compound 51] | “+++” (50% - 69% = +++)
“++++” (≥75% = ++++) | 52 (VLLEDVDAAFL; listed as Homo sapiens) [compound 52] | “+” (<20% = +)
“++++” (≥75% = ++++) | 53 (FLREYFERL; listed as Homo sapiens) [compound 53] | “+++” (50% - 69% = +++)
“++++” (≥75% = ++++) | 57 (LQIGDFVSV; listed as Homo sapiens) [compound 57] | “++++” (≥70% = ++++)
“+++” (≥50 = +++) | 59 (RLHREVAQV; listed as Homo sapiens) [compound 59] | “+” (<20% = +)
“+++” (≥50 = +++) | 60 (SLLIDVITV; listed as Homo sapiens) [compound 60] | “+++” (50% - 69% = +++)
“++++” (≥75% = ++++) | 61 (SLLNKDLSL; listed as Homo sapiens) [compound 61] | “+” (<20% = +)
“++++” (≥75% = ++++) | 62 (ALAPYLDLL; listed as Homo sapiens) [compound 62] | “++” (20% - 49% = ++)
“++++” (≥75% = ++++) | 66 (KLAPIPVEL; listed as Homo sapiens) [compound 66] | “++” (20% - 49% = ++)
“++++” (≥75% = ++++) | 67 (LLATVNVAL; listed as Homo sapiens) [compound 67] | “+” (<20% = +)
“++++” (≥75% = ++++) | 68 (QIAAFLFTV; listed as Homo sapiens) [compound 68] | “+++” (50% - 69% = +++)
“+++” (≥50 = +++) | 73 (YLGEEYPEV; listed as Homo sapiens) [compound 73] | “+” (<20% = +)
“++++” (≥75% = ++++) | 74 (SLDLRPLEV; listed as Homo sapiens) [compound 74] | “++” (20% - 49% = ++)
